Laboratory results from patent US11725011B2, “Bicyclic urea kinase inhibitors and uses thereof” (The Broad Institute, Inc., priority 2016, dated 2023).

Legend:
Assay in all cases: KINOMEscan
Assay type in all cases: binding
Conditions in all cases: 1 uM
[1] = target: ABL1 (E255K)-phosphorylated (Homo sapiens (Human), UniProt P00519, E255K)
[2] = target: ABL1 (F317L)-nonphosphorylated (Homo sapiens (Human), UniProt P00519, F317L)
[3] = target: ABL1 (M351T)-phosphorylated (Homo sapiens (Human), UniProt P00519, M351T)
ADCK4 = ADCK4 (Homo sapiens (Human), UniProt Q96D53)
AKT1 = AKT1 (Homo sapiens (Human), UniProt P31749)
AMPK-alpha1 = AMPK-alpha1 (Homo sapiens (Human), UniProt Q13131)
CAMK2A = CAMK2A (Homo sapiens (Human), UniProt Q9UQM7)
Sequence of CAMK2A (Q9UQM7 whole entry): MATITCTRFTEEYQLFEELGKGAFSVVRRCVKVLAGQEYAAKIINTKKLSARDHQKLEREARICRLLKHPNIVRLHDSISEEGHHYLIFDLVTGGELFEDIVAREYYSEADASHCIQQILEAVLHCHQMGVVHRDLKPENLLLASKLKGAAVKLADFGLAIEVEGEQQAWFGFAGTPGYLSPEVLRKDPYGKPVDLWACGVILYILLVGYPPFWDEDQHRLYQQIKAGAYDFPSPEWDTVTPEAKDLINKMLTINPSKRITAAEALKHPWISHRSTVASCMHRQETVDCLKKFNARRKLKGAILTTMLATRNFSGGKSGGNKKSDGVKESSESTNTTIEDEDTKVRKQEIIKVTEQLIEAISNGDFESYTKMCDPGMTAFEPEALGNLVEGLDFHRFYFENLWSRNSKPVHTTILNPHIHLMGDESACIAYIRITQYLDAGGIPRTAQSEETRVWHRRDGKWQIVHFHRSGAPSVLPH

CDK2 = CDK2 (Homo sapiens (Human), UniProt P24941)
CIT = CIT (Homo sapiens (Human), UniProt O14578)
Sequence of CIT (O14578 whole entry): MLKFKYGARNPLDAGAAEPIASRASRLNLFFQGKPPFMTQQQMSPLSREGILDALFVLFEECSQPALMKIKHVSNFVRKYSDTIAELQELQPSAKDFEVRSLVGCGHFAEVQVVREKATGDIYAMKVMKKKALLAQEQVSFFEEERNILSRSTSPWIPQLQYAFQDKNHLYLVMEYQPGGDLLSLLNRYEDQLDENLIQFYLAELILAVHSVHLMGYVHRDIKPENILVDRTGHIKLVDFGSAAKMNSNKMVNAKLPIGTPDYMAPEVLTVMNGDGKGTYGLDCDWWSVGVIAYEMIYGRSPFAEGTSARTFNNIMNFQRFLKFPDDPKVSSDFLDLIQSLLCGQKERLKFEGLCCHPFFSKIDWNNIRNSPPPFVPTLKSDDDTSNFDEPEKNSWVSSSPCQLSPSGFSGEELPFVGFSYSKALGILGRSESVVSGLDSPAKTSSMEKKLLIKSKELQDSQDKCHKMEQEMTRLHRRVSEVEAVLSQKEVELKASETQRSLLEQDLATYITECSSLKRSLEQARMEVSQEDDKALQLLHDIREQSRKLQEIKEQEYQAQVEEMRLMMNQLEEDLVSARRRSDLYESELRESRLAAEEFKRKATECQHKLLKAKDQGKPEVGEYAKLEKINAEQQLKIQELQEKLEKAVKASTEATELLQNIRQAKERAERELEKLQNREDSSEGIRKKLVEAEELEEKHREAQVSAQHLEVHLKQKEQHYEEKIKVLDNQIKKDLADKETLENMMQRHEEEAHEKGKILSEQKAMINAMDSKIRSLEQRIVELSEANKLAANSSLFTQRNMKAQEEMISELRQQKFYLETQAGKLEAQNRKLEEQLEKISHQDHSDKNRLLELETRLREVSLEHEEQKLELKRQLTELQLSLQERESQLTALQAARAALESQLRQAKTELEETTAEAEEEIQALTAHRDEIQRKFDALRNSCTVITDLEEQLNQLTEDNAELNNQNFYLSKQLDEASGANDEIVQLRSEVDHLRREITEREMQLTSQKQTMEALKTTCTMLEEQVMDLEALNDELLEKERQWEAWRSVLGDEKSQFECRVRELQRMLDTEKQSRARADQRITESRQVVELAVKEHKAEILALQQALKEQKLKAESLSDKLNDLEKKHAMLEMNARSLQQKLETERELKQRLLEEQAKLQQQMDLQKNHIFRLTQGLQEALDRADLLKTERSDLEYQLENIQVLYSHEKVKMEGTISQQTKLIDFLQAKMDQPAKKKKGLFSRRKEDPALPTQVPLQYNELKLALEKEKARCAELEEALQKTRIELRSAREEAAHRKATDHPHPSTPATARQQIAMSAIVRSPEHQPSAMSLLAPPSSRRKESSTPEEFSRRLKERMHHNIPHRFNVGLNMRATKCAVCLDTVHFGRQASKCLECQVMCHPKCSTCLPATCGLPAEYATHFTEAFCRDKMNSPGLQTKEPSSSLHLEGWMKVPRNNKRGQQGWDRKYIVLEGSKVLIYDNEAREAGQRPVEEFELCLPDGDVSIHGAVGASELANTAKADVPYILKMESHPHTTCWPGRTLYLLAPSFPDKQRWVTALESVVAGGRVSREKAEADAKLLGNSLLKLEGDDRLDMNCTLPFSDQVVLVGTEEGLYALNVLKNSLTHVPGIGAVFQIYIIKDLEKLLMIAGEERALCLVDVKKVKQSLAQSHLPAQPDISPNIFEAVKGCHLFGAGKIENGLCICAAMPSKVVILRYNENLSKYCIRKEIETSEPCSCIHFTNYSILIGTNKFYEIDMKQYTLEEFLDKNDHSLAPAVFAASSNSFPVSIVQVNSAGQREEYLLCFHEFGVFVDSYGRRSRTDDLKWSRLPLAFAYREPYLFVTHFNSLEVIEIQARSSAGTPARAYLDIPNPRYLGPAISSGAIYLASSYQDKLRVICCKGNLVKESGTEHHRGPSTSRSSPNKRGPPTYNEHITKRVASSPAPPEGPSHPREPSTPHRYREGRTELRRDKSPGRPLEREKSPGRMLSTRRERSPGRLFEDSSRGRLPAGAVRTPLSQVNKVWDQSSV

CLK1 = CLK1 (Homo sapiens (Human), UniProt P49759)
Sequence of CLK1 (P49759 whole entry): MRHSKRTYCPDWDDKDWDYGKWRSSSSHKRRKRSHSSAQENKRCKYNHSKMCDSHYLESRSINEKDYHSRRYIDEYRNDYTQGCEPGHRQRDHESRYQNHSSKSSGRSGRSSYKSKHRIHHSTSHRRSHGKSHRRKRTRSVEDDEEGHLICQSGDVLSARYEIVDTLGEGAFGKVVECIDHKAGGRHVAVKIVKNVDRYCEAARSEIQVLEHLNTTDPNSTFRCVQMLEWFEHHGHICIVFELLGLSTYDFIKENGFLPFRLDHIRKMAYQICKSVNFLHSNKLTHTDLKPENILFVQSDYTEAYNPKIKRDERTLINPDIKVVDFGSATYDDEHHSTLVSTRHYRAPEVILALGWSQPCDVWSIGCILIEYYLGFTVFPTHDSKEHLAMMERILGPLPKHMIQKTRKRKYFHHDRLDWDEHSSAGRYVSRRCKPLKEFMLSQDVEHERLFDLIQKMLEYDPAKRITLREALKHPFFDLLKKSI

CLK3 = CLK3 (Homo sapiens (Human), UniProt P49761)
CSNK1D = CSNK1D (Homo sapiens (Human), UniProt P48730)
Sequence of CSNK1D (P48730 whole entry): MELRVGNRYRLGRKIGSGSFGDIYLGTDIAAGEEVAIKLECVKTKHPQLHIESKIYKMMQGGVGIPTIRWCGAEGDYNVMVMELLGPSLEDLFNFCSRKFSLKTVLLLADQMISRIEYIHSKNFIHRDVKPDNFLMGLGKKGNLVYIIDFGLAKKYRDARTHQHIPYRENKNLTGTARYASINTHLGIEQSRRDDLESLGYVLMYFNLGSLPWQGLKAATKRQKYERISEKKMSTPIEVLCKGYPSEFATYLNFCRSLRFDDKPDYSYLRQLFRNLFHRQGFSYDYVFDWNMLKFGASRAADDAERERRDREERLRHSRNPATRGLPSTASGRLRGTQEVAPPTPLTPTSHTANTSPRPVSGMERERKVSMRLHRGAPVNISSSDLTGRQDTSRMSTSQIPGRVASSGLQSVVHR

CSNK1G3 = CSNK1G3 (Homo sapiens (Human), UniProt Q9Y6M4)
DRAK1 = DRAK1 (Homo sapiens (Human), UniProt Q9UEE5)
EGFR (E746-A750del) = EGFR (E746-A750del) (Homo sapiens (Human), UniProt P00533, DEL746-750)
EGFR (L861Q) = EGFR (L861Q) (Homo sapiens (Human), UniProt P00533, L861Q)
EGFR (T790M) = EGFR (T790M) (Homo sapiens (Human), UniProt P00533, T790M)
EPHA6 = EPHA6 (Homo sapiens (Human), UniProt Q9UF33)
EPHB4 = EPHB4 (Homo sapiens (Human), UniProt P54760)
FER = FER (Homo sapiens (Human), UniProt P16591)
Sequence of FER (P16591 whole entry): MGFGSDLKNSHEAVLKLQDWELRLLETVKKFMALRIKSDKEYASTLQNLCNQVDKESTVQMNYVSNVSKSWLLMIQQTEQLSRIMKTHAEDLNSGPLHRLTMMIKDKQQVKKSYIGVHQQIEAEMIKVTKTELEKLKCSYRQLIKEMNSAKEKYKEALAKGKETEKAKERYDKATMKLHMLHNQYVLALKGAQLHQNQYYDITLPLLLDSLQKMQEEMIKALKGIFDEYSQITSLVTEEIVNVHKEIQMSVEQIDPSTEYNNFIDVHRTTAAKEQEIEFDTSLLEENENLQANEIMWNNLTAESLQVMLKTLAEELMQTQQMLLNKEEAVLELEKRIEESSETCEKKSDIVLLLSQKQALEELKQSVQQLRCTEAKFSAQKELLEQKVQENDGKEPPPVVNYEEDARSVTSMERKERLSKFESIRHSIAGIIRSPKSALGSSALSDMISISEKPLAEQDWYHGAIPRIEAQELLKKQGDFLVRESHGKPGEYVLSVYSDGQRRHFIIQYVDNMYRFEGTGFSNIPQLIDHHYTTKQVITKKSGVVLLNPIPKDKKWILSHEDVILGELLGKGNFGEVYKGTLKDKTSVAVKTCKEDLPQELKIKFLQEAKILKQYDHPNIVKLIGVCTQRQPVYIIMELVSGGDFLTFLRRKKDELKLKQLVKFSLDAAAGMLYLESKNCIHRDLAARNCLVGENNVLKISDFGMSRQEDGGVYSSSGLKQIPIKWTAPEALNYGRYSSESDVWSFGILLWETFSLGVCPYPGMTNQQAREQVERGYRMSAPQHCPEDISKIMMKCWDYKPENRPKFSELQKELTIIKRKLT

IKK-epsilon = IKK-epsilon (Homo sapiens (Human), UniProt Q14164)
IRAK3 = IRAK3 (Homo sapiens (Human), UniProt Q9Y616)
KIT (D816V) = KIT (D816V) (Homo sapiens (Human), UniProt P10721, D816V)
LKB1 = LKB1 (Homo sapiens (Human), UniProt Q15831)
LRRK2 = LRRK2 (Homo sapiens (Human), UniProt Q5S007)
MARK3 = MARK3 (Homo sapiens (Human), UniProt P27448)
MET = MET (Homo sapiens (Human), UniProt P08581)
MLK2 = MLK2 (Homo sapiens (Human), UniProt Q02779)
p38-delta = p38-delta (Homo sapiens (Human), UniProt O15264)
PFTAIRE2 = PFTAIRE2 (Homo sapiens (Human), UniProt Q96Q40)
PIP5K1A = PIP5K1A (Homo sapiens (Human), UniProt Q99755)
PLK3 = PLK3 (Homo sapiens (Human), UniProt Q9H4B4)
PRKCI = PRKCI (Homo sapiens (Human), UniProt P41743)
PRKR = PRKR (Homo sapiens (Human), UniProt P19525)
RIOK1 = RIOK1 (Homo sapiens (Human), UniProt Q9BRS2)
RIPK2 = RIPK2 (Homo sapiens (Human), UniProt O43353)
ROCK2 = ROCK2 (Homo sapiens (Human), UniProt O75116)
[4] = target: RPS6KA4 (Kin.Dom.2-C-terminal) (Homo sapiens (Human), UniProt O75676)
TSSK1B = TSSK1B (Homo sapiens (Human), UniProt Q9BXA7)
TTK = TTK (Homo sapiens (Human), UniProt P33981)
Sequence of TTK (P33981 whole entry): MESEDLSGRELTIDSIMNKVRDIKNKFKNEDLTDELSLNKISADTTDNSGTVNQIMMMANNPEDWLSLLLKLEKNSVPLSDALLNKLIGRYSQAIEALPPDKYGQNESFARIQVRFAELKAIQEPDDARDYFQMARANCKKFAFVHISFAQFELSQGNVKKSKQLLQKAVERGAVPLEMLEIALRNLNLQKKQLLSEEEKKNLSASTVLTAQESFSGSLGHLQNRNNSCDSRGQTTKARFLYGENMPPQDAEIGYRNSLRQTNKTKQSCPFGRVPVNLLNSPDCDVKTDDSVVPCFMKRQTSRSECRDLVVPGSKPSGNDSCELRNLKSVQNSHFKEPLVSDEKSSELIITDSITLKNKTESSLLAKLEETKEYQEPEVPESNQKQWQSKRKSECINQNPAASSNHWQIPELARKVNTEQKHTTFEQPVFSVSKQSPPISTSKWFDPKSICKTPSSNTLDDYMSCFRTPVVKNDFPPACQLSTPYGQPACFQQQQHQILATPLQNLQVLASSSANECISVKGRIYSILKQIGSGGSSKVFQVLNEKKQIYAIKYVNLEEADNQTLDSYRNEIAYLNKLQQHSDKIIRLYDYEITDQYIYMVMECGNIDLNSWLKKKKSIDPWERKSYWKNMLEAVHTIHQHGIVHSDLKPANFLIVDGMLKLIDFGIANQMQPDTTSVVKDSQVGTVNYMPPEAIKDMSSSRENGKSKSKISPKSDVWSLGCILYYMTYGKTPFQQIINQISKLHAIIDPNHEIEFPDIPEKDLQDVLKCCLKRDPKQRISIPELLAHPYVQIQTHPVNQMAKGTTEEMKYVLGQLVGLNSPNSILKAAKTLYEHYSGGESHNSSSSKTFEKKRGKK

With `COc1ccc(N2C(=O)N(c3c(C)cccc3C)Cc3cnc(Nc4ccc(N5CCN(C)CC5)cc4)nc32)c(OC)c1` [HG-11-136-01] the “KINOMEscan ABL1 (E255K)-phosphorylated” value [1] was 0.4, the “KINOMEscan ABL1 (F317L)-nonphosphorylated” value [2] was 0 and the “KINOMEscan ABL1 (M351T)-phosphorylated” value [3] was 0.55. The “KINOMEscan ADCK4” value (ADCK4) was 44, the “KINOMEscan AKT1” value (AKT1) was 100 and the “KINOMEscan AMPK-alpha1” value (AMPK-alpha1) was 33. The “KINOMEscan CAMK2A” value (CAMK2A) was 93, the “KINOMEscan CDK2” value (CDK2) was 97 and the “KINOMEscan CIT” value (CIT) was 58. The “KINOMEscan CLK1” value (CLK1) was 19, the “KINOMEscan CLK3” value (CLK3) was 78 and the “KINOMEscan CSNK1D” value (CSNK1D) was 100. The “KINOMEscan CSNK1G3” value (CSNK1G3) was 84, the “KINOMEscan DRAK1” value (DRAK1) was 96 and the “KINOMEscan EGFR (E746-A750del)” value (EGFR (E746-A750del)) was 1.8. For the same compound, the “KINOMEscan EGFR (L861Q)” value (EGFR (L861Q)) was 0, the “KINOMEscan EGFR (T790M)” value (EGFR (T790M)) was 0.7 and the “KINOMEscan EPHA6” value (EPHA6) was 0.2. The “KINOMEscan EPHB4” value (EPHB4) was 0, the “KINOMEscan FER” value (FER) was 0.1 and the “KINOMEscan IKK-epsilon” value (IKK-epsilon) was 47. The “KINOMEscan IRAK3” value (IRAK3) was 38, the “KINOMEscan KIT (D816V)” value (KIT (D816V)) was 0.2 and the “KINOMEscan LKB1” value (LKB1) was 69. The “KINOMEscan LRRK2” value (LRRK2) was 21, the “KINOMEscan MARK3” value (MARK3) was 1.6 and the “KINOMEscan MET” value (MET) was 66. The “KINOMEscan MLK2” value (MLK2) was 11, the “KINOMEscan p38-delta” value (p38-delta) was 100 and the “KINOMEscan PFTAIRE2” value (PFTAIRE2) was 78. The “KINOMEscan PIP5K1A” value (PIP5K1A) was 14, the “KINOMEscan PLK3” value (PLK3) was 31 and the “KINOMEscan PRKCI” value (PRKCI) was 63. For the same compound, the “KINOMEscan PRKR” value (PRKR) was 73, the “KINOMEscan RIOK1” value (RIOK1) was 9.2 and the “KINOMEscan RIPK2” value (RIPK2) was 0.1. For the same compound, the “KINOMEscan ROCK2” value (ROCK2) was 89, the “KINOMEscan RPS6KA4 (Kin.Dom.2-C-terminal)” value [4] was 90 and the “KINOMEscan TSSK1B” value (TSSK1B) was 50. For the same compound, the “KINOMEscan TTK” value (TTK) was 47.
